Assay results reported in US20180311364A1, “Protease Triggered Release Of Molecules From Hydrogels” (The Trustees of the University of Pennsylvania, priority 2010, published 2018).

Test: Triggered release of ilomastat from HA-aldehyde / HA-peptide-hydrazide hydrogel
Format: physicochemical
Procedure: Ilomastat was ground into a fine powder of uniform microparticles. These microparticles were suspended in the dissolved HA-aldehyde and HA-peptide-hydrazide solutions at 10 μg per 100 μL of polymer solution. At this concentration ilomastat remains a solid particle within the polymer solution. HA-aldehyde and HA-peptide-hydrazide polymers were mixed 1:1 aldehdye:hydrazide to induce crosslinking into a solid gel. The gels were incubated in phosphate buffered saline at 37° C. After 14 days less than 10% of the ilomastat was released from the gels due to hydrophobic interactions of the ilomastat in the microparticles. The gels were then exposed to collagenase 200 U/mL and the gels degraded.

## CNC(=O)[C@H](Cc1c[nH]c2ccccc12)NC(=O)[C@@H](CC(=O)NO)CC(C)C [ilomastat, Ilomastat]
Gels exposed to collagenase 200 U/mL after 14 days in PBS, gels degraded
  ilomastat release after gel degradation (HPLC): solubilized in the larger volume of the buffer
Gels incubated in phosphate buffered saline at 37° C., after 14 days, ilomastat microparticles 10 μg per 100 μL polymer solution
  ilomastat released from the gels: less than 10%
